In PubChem BioAssay (NCI):
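All cell lines were grown in 96-well plates and treated with compound for 48 hours. The concentration for full growth arrest is given as TGI.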

Columns and labels:
Assay in all cases: growth of human tumour cells (NCI), 48 h
[1] = test system: NCI-H460 lung
[2] = test system: BT-549 breast
[3] = test system: T-47D breast
[4] = test system: OVCAR-3 ovarian
[5] = test system: MALME-3M melanoma
[6] = test system: A549 NSCLC
[7] = test system: HOP-92 NSCLC
[8] = test system: SF-295 CNS
[9] = test system: HCC-2998 colon
[10] = test system: U251 CNS
[11] = test system: CAKI-1 renal
[12] = test system: NCI-H226 lung
[13] = test system: SK-OV-3 ovarian
[14] = test system: IGROV1 ovarian
[15] = test system: CCRF-CEM leukemia
[16] = test system: RXF 393 renal
[17] = test system: HCT-116 colon
[18] = test system: A498 renal
[19] = test system: MDA-N
[20] = test system: SN12C renal

SMILES	TGI [1]	TGI [2]	TGI [3]	TGI [4]	TGI [5]	TGI [6]	TGI [7]	TGI [8]	TGI [9]	TGI [10]	TGI [11]	TGI [12]	TGI [13]	TGI [14]	TGI [15]	TGI [16]	TGI [17]	TGI [18]	TGI [19]	TGI [20]
CCOC(=O)c1nc2ccccc2nc1NCc1ccc(OC)cc1	> 100 µM	> 100 µM	> 100 µM	> 100 µM	> 100 µM	> 100 µM	> 100 µM	> 100 µM	> 100 µM	> 100 µM	> 100 µM	> 100 µM	> 100 µM	> 100 µM	> 100 µM	71.5 µM	> 100 µM	> 100 µM	–	–
CCOP(=O)(OCC)C1CC(O)CN1OC(=O)C(C)(C)C (stereo not drawn)	–	–	–	> 100 µM	> 100 µM	> 100 µM	–	> 100 µM	–	> 100 µM	–	> 100 µM	> 100 µM	> 100 µM	> 100 µM	–	> 100 µM	> 100 µM	> 100 µM	> 100 µM
CCOC(=O)C(Cc1ccccc1)NC(=O)c1ccc(N=NN(C)C)cc1 (stereo not drawn)	> 100 µM	–	–	> 100 µM	> 100 µM	> 100 µM	–	> 100 µM	> 100 µM	> 100 µM	> 100 µM	> 100 µM	> 100 µM	> 100 µM	> 100 µM	–	> 100 µM	> 100 µM	–	> 100 µM
O=C(NC1CCC(=O)N1C(=O)OCc1ccccc1)OCc1ccccc1 (stereo not drawn)	> 100 µM	> 100 µM	–	> 100 µM	> 100 µM	> 100 µM	> 100 µM	> 100 µM	> 100 µM	> 100 µM	> 100 µM	> 100 µM	> 100 µM	> 100 µM	–	> 100 µM	–	–	> 100 µM	> 100 µM
Nc1ncnc2c1ncn2C1C=CC(CP(=O)(O)O)C1 (stereo not drawn)	> 100 µM	–	> 100 µM	> 100 µM	> 100 µM	> 100 µM	–	> 100 µM	> 100 µM	> 100 µM	> 100 µM	> 100 µM	> 100 µM	> 100 µM	–	> 100 µM	> 100 µM	–	> 100 µM	> 100 µM
CCCN1CN(C(C(=O)N[C@@H]2C(=O)N3C2SC(C)(C)C3C(=O)O)c2ccccc2)CSC1=S (stereo partly drawn)	> 100 µM	–	–	> 100 µM	> 100 µM	> 100 µM	> 100 µM	> 100 µM	–	> 100 µM	> 100 µM	–	> 100 µM	> 100 µM	> 100 µM	–	> 100 µM	> 100 µM	–	> 100 µM
NCC#CCNCCCN1CC1	> 100 µM	–	> 100 µM	> 100 µM	> 100 µM	> 100 µM	> 100 µM	> 100 µM	> 100 µM	> 100 µM	> 100 µM	> 100 µM	> 100 µM	> 100 µM	–	–	> 100 µM	> 100 µM	> 100 µM	> 100 µM
Cc1cc2c(cc1Cl)SC(N/N=C(\N)c1ccc(Cl)cc1)=NS2(=O)=O	> 100 µM	> 100 µM	> 100 µM	> 100 µM	> 100 µM	> 100 µM	58.9 µM	> 100 µM	> 100 µM	> 100 µM	> 100 µM	> 100 µM	> 100 µM	> 100 µM	> 100 µM	> 100 µM	> 100 µM	72.9 µM	–	> 100 µM
Cc1ccc(OCC2OC(C#N)C(Oc3ccc(C)cc3)C2Oc2ccc(C)cc2)cc1 (stereo not drawn)	> 100 µM	> 100 µM	> 100 µM	> 100 µM	–	> 100 µM	–	> 100 µM	> 100 µM	> 100 µM	> 100 µM	> 100 µM	> 100 µM	> 100 µM	> 100 µM	> 100 µM	> 100 µM	> 100 µM	–	> 100 µM
COc1ccc(-c2c(C#N)c(-c3ccc(C)cc3)n(NS(=O)(=O)c3ccccc3)c(=O)c2C#N)cc1	> 100 µM	> 100 µM	–	> 100 µM	> 100 µM	> 100 µM	> 100 µM	> 100 µM	> 100 µM	> 100 µM	> 100 µM	> 100 µM	> 100 µM	> 100 µM	> 100 µM	> 100 µM	> 100 µM	> 100 µM	> 100 µM	> 100 µM
CC1(C)C(O)C[C@]23CCC[C@](C)(C[C@@H](O)C12)C3 (stereo partly drawn)	> 100 µM	> 100 µM	–	> 100 µM	> 100 µM	> 100 µM	> 100 µM	> 100 µM	–	> 100 µM	> 100 µM	> 100 µM	> 100 µM	> 100 µM	> 100 µM	–	–	–	–	> 100 µM
CCOc1ccccc1N=Nc1c(-c2ccccc2)nn(C(=O)CC(=O)Nc2cccc(Cl)c2)c1-c1ccccc1	> 100 µM	–	–	> 100 µM	> 100 µM	> 100 µM	> 100 µM	> 100 µM	> 100 µM	> 100 µM	> 100 µM	> 100 µM	> 100 µM	> 100 µM	> 100 µM	> 100 µM	> 100 µM	–	–	> 100 µM
COC1O[C@@H]2CCN3C(=O)[C@@H](OC(=O)c4ccc([N+](=O)[O-])cc4)[C@H]1C23 (stereo partly drawn)	> 100 µM	–	> 100 µM	> 100 µM	–	> 100 µM	> 100 µM	> 100 µM	> 100 µM	> 100 µM	> 100 µM	> 100 µM	> 100 µM	> 100 µM	> 100 µM	> 100 µM	> 100 µM	> 100 µM	–	> 100 µM
CC(C)OCC(O)COc1ccc2ccc(=O)oc2c1 (stereo not drawn)	> 100 µM	–	> 100 µM	> 100 µM	> 100 µM	> 100 µM	> 100 µM	> 100 µM	> 100 µM	> 100 µM	> 100 µM	–	> 100 µM	> 100 µM	> 100 µM	–	> 100 µM	–	> 100 µM	> 100 µM
C[C@]12CCC(=O)C=C1CC[C@@H]1[C@@H]2CC[C@]2(C)C(=O)[C@H](n3ccnc3)C[C@@H]12	> 100 µM	–	–	–	> 100 µM	> 100 µM	> 100 µM	> 100 µM	–	> 100 µM	> 100 µM	> 100 µM	–	> 100 µM	> 100 µM	> 100 µM	> 100 µM	> 100 µM	> 100 µM	> 100 µM
O=C(NCc1ccccc1)c1cc2cc(O)c(O)cc2cn1	91.6 µM	–	–	> 100 µM	> 100 µM	> 100 µM	> 100 µM	> 100 µM	> 100 µM	> 100 µM	98.5 µM	89.9 µM	> 100 µM	73.2 µM	> 100 µM	62.3 µM	> 100 µM	> 100 µM	–	> 100 µM
O=C(C#CP(=O)(O)c1ccccc1)c1ccccc1	> 100 µM	–	> 100 µM	> 100 µM	> 100 µM	> 100 µM	> 100 µM	> 100 µM	> 100 µM	> 100 µM	> 100 µM	–	> 100 µM	> 100 µM	–	–	> 100 µM	> 100 µM	> 100 µM	> 100 µM
COc1ccc(CNC2=C(NC(C)=O)C(=O)c3ccccc3C2=O)cc1	> 50 µM	–	–	20.8 µM	15.2 µM	> 50 µM	13 µM	> 50 µM	> 50 µM	47.5 µM	–	> 50 µM	> 50 µM	> 50 µM	24.7 µM	12.8 µM	19.9 µM	–	–	> 50 µM
O=C1c2ccccc2-c2nc3ccc(O)cc3n21	> 100 µM	> 100 µM	–	> 100 µM	> 100 µM	> 100 µM	> 100 µM	> 100 µM	> 100 µM	> 100 µM	> 100 µM	> 100 µM	> 100 µM	> 100 µM	> 100 µM	> 100 µM	> 100 µM	–	> 100 µM	> 100 µM
CC(NC(=O)C(N)Cc1ccc(O)cn1)C(=O)O (stereo not drawn)	> 100 µM	> 100 µM	–	> 100 µM	> 100 µM	> 100 µM	> 100 µM	> 100 µM	> 100 µM	> 100 µM	> 100 µM	> 100 µM	–	> 100 µM	> 100 µM	> 100 µM	> 100 µM	> 100 µM	> 100 µM	> 100 µM
OCC1NCC(O)C(O)C1O (stereo not drawn)	> 100 µM	> 100 µM	–	> 100 µM	55.8 µM	> 100 µM	> 100 µM	–	> 100 µM	> 100 µM	> 100 µM	–	> 100 µM	> 100 µM	> 100 µM	> 100 µM	> 100 µM	> 100 µM	> 100 µM	> 100 µM
Cc1ccc2c(=O)cc(-c3cccc4ccccc34)[nH]c2n1	> 100 µM	> 94.6 µM	> 100 µM	–	0.0495 µM	> 48.1 µM	32 µM	> 100 µM	0.177 µM	1.64 µM	> 100 µM	35.2 µM	2.64 µM	> 100 µM	> 100 µM	> 100 µM	> 34.8 µM	0.0568 µM	–	> 100 µM
O=C(O)C(Cc1c[nH]c2ccccc12)N=Cc1nc(-c2ccccc2)oc1O (stereo not drawn)	> 100 µM	–	–	> 100 µM	> 100 µM	> 100 µM	> 100 µM	> 100 µM	> 100 µM	> 100 µM	–	> 100 µM	> 100 µM	> 100 µM	> 100 µM	> 100 µM	> 100 µM	> 100 µM	–	> 100 µM
O=C(Cn1cc(-c2ccccc2)nn1)NC1CCCC1	> 100 µM	> 100 µM	–	–	> 100 µM	> 100 µM	> 100 µM	> 100 µM	> 100 µM	> 100 µM	> 100 µM	> 100 µM	–	> 100 µM	> 100 µM	–	> 100 µM	–	–	> 100 µM
OCC1OC(Oc2cc(O)cc(/C=C\c3ccc(O)cc3)c2)C(O)C(O)C1O (stereo not drawn)	> 100 µM	> 100 µM	–	> 100 µM	–	> 100 µM	> 100 µM	> 100 µM	–	> 100 µM	> 100 µM	> 100 µM	> 100 µM	> 100 µM	> 100 µM	> 100 µM	> 100 µM	> 100 µM	> 100 µM	> 100 µM
O=C(O)C1(C(=O)O)CC1(C(=O)O)C(=O)O	> 100 µM	> 100 µM	> 100 µM	–	> 100 µM	> 100 µM	–	> 100 µM	> 100 µM	> 100 µM	> 100 µM	> 100 µM	> 100 µM	> 100 µM	> 100 µM	> 100 µM	> 100 µM	–	–	> 100 µM
COc1ccccc1C(C1=C(O)COC1=O)c1cc2c(cc1OC(C)=O)OCO2 (stereo not drawn)	> 100 µM	> 100 µM	–	> 100 µM	> 100 µM	> 100 µM	–	> 100 µM	> 100 µM	> 100 µM	> 100 µM	> 100 µM	> 100 µM	> 100 µM	> 100 µM	> 100 µM	> 100 µM	> 100 µM	> 100 µM	> 100 µM
COC(=O)N/N=C(/CCN1CCCC1)CC(c1ccccc1)c1c(O)c2ccccc2oc1=O (stereo not drawn)	> 100 µM	–	–	> 100 µM	> 100 µM	> 100 µM	–	> 100 µM	> 100 µM	> 100 µM	> 100 µM	> 100 µM	> 100 µM	> 100 µM	> 100 µM	> 100 µM	> 100 µM	> 100 µM	–	> 100 µM
